From patent publication US4727150A, “Pyridyl methylsulfinyl benzimidazole derivatives” (Takeda Chemical Industries, Ltd., priority 1984, dated 1988)

test system: gastric mucosa; experiment: Ethanol-induced gastric mucosal injury in rats (action of protecting gastric mucosa); format: in vivo, Male Sprague-Dawley rats; conditions: Rattus norvegicus, po; 6 rats per group; 1, 3, 10 and 30 mg/kg into stomach; 100% ethanol 1 ml orally 30 min later; lesions measured 60 min after ethanol; read-out: Action of protecting gastric mucosa ID50
Experimental: As a method of determining the protecting ability of gastric mucosa, gastric mocosal injury induced by ethanol [Robert A., Gastroenterology 77, 761 (1979)] is often used. This method was applied to evaluation of the compounds of this invention. Male Sprague-Dawley rats of 7-weeks old were fasted for 24 hours. These animals were administered test compounds into stomach by using a gastric tube. After 30 minutes, 1 ml of 100% ethanol was administered orally. The animals were killed by carbon dioxide gas 60 minutes after ethanol administration. The stomach was removed together with the lower part of esophagus and the duodenum. The esophagus was clipped, 10 ml of 1% formalin solution was instilled into the stomach from the duodenum, and then the duodenum was clipped. The whole stomach was immersed in 1% formalin solution. About 15 minutes later, the stomachs were opened along the greater curvature. The length of the lesions which occurred in the gastric antral mucosa was measured under a dissecting microscope with a square-grid eye piece (×10). The sum total length of the individual lesions in each animal was measured, and the average value per group was calculated. Based on the difference between the average value of each group and that of the control group, the inhibition rate was determined. The test compound was suspended in a 5% gum arabic solution, and administered in a volume of 2 ml/kg. | ^(a) Using 6 rats per group, each of the test compounds was | administered in a dose of 1, 3, 10 and 30 mg/kg to determine ID50.

| SMILES | ED50 [mg/kg] |
| --- | --- |
| CCCOc1ccnc(C[S+]([O-])c2nc3ccccc3[nH]2)c1C (centres unmarked) [2-[3-methyl-4-propoxy-2-pyridyl)methylsulfinylbenzimidazole] | 12.5 |
| CCCOc1ccnc(C[S+]([O-])c2nc3ccccc3[nH]2)c1 (centres unmarked) [R^1 =H, R^2 =H, R^3 =(CH2)2 CH3, R^4 =H] | 7.2 |
| CCCCCCCCOc1ccnc(C[S+]([O-])c2nc3ccccc3[nH]2)c1 (centres unmarked) [R^1 =H, R^2 =H, R^3 =(CH2)7 CH3, R^4 =H] | 1.6 |
| CC(C)Oc1ccnc(C[S+]([O-])c2nc3cc(C(F)(F)F)ccc3[nH]2)c1 (centres unmarked) | 5.8 |
| CCCCCCOc1ccnc(C[S+]([O-])c2nc3ccccc3[nH]2)c1 (centres unmarked) [R^1 =H, R^2 =H, R^3 =(CH2)5 CH3, R^4 =H] | 1.6 |
| COc1ccnc(C[S+]([O-])c2nc3cc(C(F)(F)F)ccc3[nH]2)c1C (centres unmarked) [R^1 =5-CF3, R^2 =CH3, R^3 =CH3, R^4 =H, reference compound] | 24 |
| CC(C)Oc1ccnc(C[S+]([O-])c2nc3cc(F)ccc3[nH]2)c1 (centres unmarked) [R^1 =5-F, R^2 =H, R^3 =CH(CH3)2, R^4 =H] | 8.8 |
| CC(C)Oc1ccnc(C[S+]([O-])c2nc3ccccc3[nH]2)c1 (centres unmarked) [R^1 =H, R^2 =H, R^3 =CH(CH3)2, R^4 =H] | 1.3 |
| COc1ccc2[nH]c([S+]([O-])Cc3ncc(C)c(OC)c3C)nc2c1 (centres unmarked) [reference compound] | 22 |
| CCCCOc1ccnc(C[S+]([O-])c2nc3ccccc3[nH]2)c1 (centres unmarked) [R^1 =H, R^2 =H, R^3 =(CH2)3 CH3, R^4 =H] | 9.8 |

test system: mice; experiment: Oral toxicity in mice; format: in vivo; conditions: oral administration, 500 mg/kg

| SMILES | fatal effect |
| --- | --- |
| CCCOc1ccnc(C[S+]([O-])c2nc3ccccc3[nH]2)c1 (centres unmarked) [R^1 =H, R^2 =H, R^3 =(CH2)2 CH3, R^4 =H] | no fatal effect |
